Assays:
Experiment in all cases: relative viability (nuclei count vs DMSO), 5 days (fraction); higher = more cells survive
NCI-H23 = tested on: NCI-H23
How it was run: (§1)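 Cells from lung cancer lines were seeded into 1536-well plates and, one day later, dosed by pin tool. Treatments were either a single drug or a fixed dose of an anchor drug with five library-drug doses (not always all listed) in √10 steps. After 5 days, nuclei were stained in a one-step fixation (final 0.05% Triton X-100, 1% formaldehyde, 1 ug/ml Hoechst) and counted on 4× images, and relative viability is the treated-to-vehicle nuclei ratio, as the median of duplicate plates.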

NCI-H1792 = tested on: NCI-H1792
How it was run: as §1

NCI-H1666 = tested on: NCI-H1666
How it was run: as §1

A-427 = tested on: A-427
How it was run: as §1

NCI-H596 = tested on: NCI-H596
How it was run: as §1

HARA = tested on: HARA
How it was run: as §1

SW 900 = tested on: SW 900
How it was run: as §1

HCC-44 = tested on: HCC-44
How it was run: as §1

NCI-H2342 = tested on: NCI-H2342
How it was run: as §1

HCC-15 = tested on: HCC-15
How it was run: as §1

COR-L23 = tested on: COR-L23
How it was run: as §1

NCI-H838 = tested on: NCI-H838
How it was run: as §1

NCI-H1650 = tested on: NCI-H1650
How it was run: as §1

NCI-H441 = tested on: NCI-H441
How it was run: as §1

HCC-827 = tested on: HCC-827
How it was run: as §1

EKVX = tested on: EKVX
How it was run: as §1

NCI-H1437 = tested on: NCI-H1437
How it was run: as §1

SK-MES-1 = tested on: SK-MES-1
How it was run: as §1

BEN = tested on: BEN
How it was run: as §1

NCI-H650 = tested on: NCI-H650
How it was run: as §1

NCI-H1975 = tested on: NCI-H1975
How it was run: as §1

NCI-H358 = tested on: NCI-H358
How it was run: as §1

201T = tested on: 201T
How it was run: as §1

O=c1cc(-c2cccc3c2Sc2ccccc2S3)oc(N2CCOCC2)c1 + CCNC(=O)c1noc(-c2cc(C(C)C)c(O)cc2O)c1-c1ccc(CN2CCOCC2)cc1 [Luminespib] (partner 0.01 µM)
relative viability (NCI-H23; first compound 0.08 µM): 0.195 | relative viability (NCI-H23; first compound 0.253 µM): 0.228 | relative viability (NCI-H23; first compound 0.8 µM): 0.188 | relative viability (NCI-H23; first compound 2.53 µM): 0.219 | relative viability (NCI-H23; first compound 8 µM): 0.209 | relative viability (NCI-H1792; first compound 0.08 µM): 0.362 | relative viability (NCI-H1792; first compound 0.253 µM): 0.686 | relative viability (NCI-H1792; first compound 0.8 µM): 0.329 | relative viability (NCI-H1792; first compound 2.53 µM): 0.424 | relative viability (NCI-H1792; first compound 8 µM): 0.328 | relative viability (NCI-H1666; first compound 0.08 µM): 1.01 | relative viability (NCI-H1666; first compound 0.253 µM): 1.09 | relative viability (NCI-H1666; first compound 0.8 µM): 1.01 | relative viability (NCI-H1666; first compound 2.53 µM): 1.06 | relative viability (NCI-H1666; first compound 8 µM): 1.17 | relative viability (A-427; first compound 0.08 µM): 0.92 | relative viability (A-427; first compound 0.253 µM): 1.18 | relative viability (A-427; first compound 0.8 µM): 1.01 | relative viability (A-427; first compound 2.53 µM): 0.842 | relative viability (A-427; first compound 8 µM): 1.09 | relative viability (NCI-H596; first compound 0.08 µM): 1.06 | relative viability (NCI-H596; first compound 0.253 µM): 0.957 | relative viability (NCI-H596; first compound 0.8 µM): 0.763 | relative viability (NCI-H596; first compound 2.53 µM): 0.891 | relative viability (NCI-H596; first compound 8 µM): 0.852 | relative viability (HARA; first compound 0.08 µM): 0.708 | relative viability (HARA; first compound 0.253 µM): 0.808 | relative viability (HARA; first compound 0.8 µM): 0.822 | relative viability (HARA; first compound 2.53 µM): 0.576 | relative viability (HARA; first compound 8 µM): 0.834 | relative viability (SW 900; first compound 0.08 µM): 0.198 | relative viability (SW 900; first compound 0.253 µM): 0.187 | relative viability (SW 900; first compound 0.8 µM): 0.166 | relative viability (SW 900; first compound 2.53 µM): 0.149 | relative viability (SW 900; first compound 8 µM): 0.15 | relative viability (HCC-44; first compound 0.08 µM): 1.17 | relative viability (HCC-44; first compound 0.253 µM): 0.971 | relative viability (HCC-44; first compound 2.53 µM): 0.993 | relative viability (HCC-44; first compound 8 µM): 1.04 | relative viability (NCI-H2342; first compound 0.08 µM): 0.676 | relative viability (NCI-H2342; first compound 0.253 µM): 0.68 | relative viability (NCI-H2342; first compound 0.8 µM): 0.715 | relative viability (NCI-H2342; first compound 2.53 µM): 0.663 | relative viability (NCI-H2342; first compound 8 µM): 0.731 | relative viability (HCC-15; first compound 0.08 µM): 0.206 | relative viability (HCC-15; first compound 0.253 µM): 0.207 | relative viability (HCC-15; first compound 0.8 µM): 0.373 | relative viability (HCC-15; first compound 2.53 µM): 0.242 | relative viability (HCC-15; first compound 8 µM): 0.276 | relative viability (COR-L23; first compound 0.08 µM): 0.863 | relative viability (COR-L23; first compound 0.253 µM): 0.854 | relative viability (COR-L23; first compound 0.8 µM): 0.837 | relative viability (COR-L23; first compound 2.53 µM): 0.78 | relative viability (COR-L23; first compound 8 µM): 0.703 | relative viability (NCI-H838; first compound 0.08 µM): 0.277 | relative viability (NCI-H838; first compound 0.253 µM): 0.264 | relative viability (NCI-H838; first compound 0.8 µM): 0.371 | relative viability (NCI-H838; first compound 2.53 µM): 0.313 | relative viability (NCI-H838; first compound 8 µM): 0.23 | relative viability (NCI-H1650; first compound 0.08 µM): 0.189 | relative viability (NCI-H1650; first compound 0.253 µM): 0.199 | relative viability (NCI-H1650; first compound 0.8 µM): 0.199 | relative viability (NCI-H1650; first compound 2.53 µM): 0.186 | relative viability (NCI-H1650; first compound 8 µM): 0.209 | relative viability (NCI-H441; first compound 0.08 µM): 0.331 | relative viability (NCI-H441; first compound 0.253 µM): 0.314 | relative viability (NCI-H441; first compound 0.8 µM): 0.35 | relative viability (NCI-H441; first compound 2.53 µM): 0.407 | relative viability (NCI-H441; first compound 8 µM): 0.281 | relative viability (HCC-827; first compound 0.08 µM): 0.582 | relative viability (HCC-827; first compound 0.253 µM): 0.588 | relative viability (HCC-827; first compound 0.8 µM): 0.656 | relative viability (HCC-827; first compound 2.53 µM): 0.588 | relative viability (HCC-827; first compound 8 µM): 0.639 | relative viability (EKVX; first compound 0.08 µM): 0.829 | relative viability (EKVX; first compound 0.253 µM): 0.924 | relative viability (EKVX; first compound 0.8 µM): 0.846 | relative viability (EKVX; first compound 2.53 µM): 0.883 | relative viability (EKVX; first compound 8 µM): 0.853 | relative viability (NCI-H1437; first compound 0.08 µM): 1.08 | relative viability (NCI-H1437; first compound 0.253 µM): 1.29 | relative viability (NCI-H1437; first compound 0.8 µM): 1.28 | relative viability (NCI-H1437; first compound 2.53 µM): 1.15 | relative viability (NCI-H1437; first compound 8 µM): 1.21 | relative viability (SK-MES-1; first compound 0.08 µM): 0.775 | relative viability (SK-MES-1; first compound 0.253 µM): 0.748 | relative viability (SK-MES-1; first compound 0.8 µM): 0.734 | relative viability (SK-MES-1; first compound 2.53 µM): 0.522 | relative viability (SK-MES-1; first compound 8 µM): 0.505 | relative viability (BEN; first compound 0.08 µM): 0.223 | relative viability (BEN; first compound 0.253 µM): 0.435 | relative viability (BEN; first compound 0.8 µM): 0.294 | relative viability (BEN; first compound 2.53 µM): 0.271 | relative viability (BEN; first compound 8 µM): 0.387 | relative viability (NCI-H650; first compound 0.08 µM): 0.711 | relative viability (NCI-H650; first compound 0.253 µM): 0.756 | relative viability (NCI-H650; first compound 0.8 µM): 0.873 | relative viability (NCI-H650; first compound 8 µM): 0.813 | relative viability (NCI-H1975; first compound 0.08 µM): 0.121 | relative viability (NCI-H1975; first compound 0.253 µM): 0.167 | relative viability (NCI-H1975; first compound 0.8 µM): 0.15 | relative viability (NCI-H1975; first compound 2.53 µM): 0.231 | relative viability (NCI-H1975; first compound 8 µM): 0.169 | relative viability (NCI-H358; first compound 0.08 µM): 0.154 | relative viability (NCI-H358; first compound 0.253 µM): 0.388 | relative viability (NCI-H358; first compound 0.8 µM): 0.329 | relative viability (NCI-H358; first compound 2.53 µM): 0.375 | relative viability (NCI-H358; first compound 8 µM): 0.292 | relative viability (201T; first compound 0.08 µM): 1.02 | relative viability (201T; first compound 0.253 µM): 1.05 | relative viability (201T; first compound 0.8 µM): 1.16 | relative viability (201T; first compound 2.53 µM): 0.99 | relative viability (201T; first compound 8 µM): 0.969

— the supplement of paper PMC10307832
